Patent US20250206727A1, “HETEROCYCLIC SUBSTITUTED AROMATIC COMPOUND, PREPARATION METHOD THEREFOR, HERBICIDAL COMPOSITION AND APPLICATION” (QINGDAO KINGAGROOT CHEMICAL COMPOUND CO., LTD., priority 2022, published 2025)

Columns and labels:
Test in all cases: Post-emergence test on weeds (greenhouse, spray at 2-3 leaf stage)
Assay type in all cases: in vivo
Design in all cases: key: Level 10: completely dead; Level 9: growth control rate greater than or equal to 90% and less than 100%; Level 8: growth control rate greater than or equal to 80% and less than 90%; Level 7: growth control rate greater than or equal to 70% and less than 80%; Level 6: growth control rate greater than or equal to 60% and less than 70%; Level 5: growth control rate greater than or equal to 50% and less than 60%; Level 4: growth control rate greater than or equal to 40% and less than 50%; Level 3: growth control rate greater than or equal to 30% and less than 40%; Level 2: growth control rate greater than or equal to 20% and less than 30%; Level 1: growth control rate less than 20%; Level 0: no effect
Details in all cases: 60 g a.i./ha, 3 weeks after application
[1] = tested on: Echinochloa crus-galli
Summary of the method: (§1)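 Pot-grown plants were spray-tower treated two weeks after sowing with compound in acetone/Tween 80 plus 1.5 L/ha methyl oleate EC, at rates from 500 to 7.5 g a.i./ha. Fresh-weight growth control was scored 0–10 after 3 weeks in the greenhouse, averaged over triplicates.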

[2] = tested on: Veronica polita
Summary of the method: as §1

[3] = tested on: Digitaria sanguinalis
Summary of the method: as §1

[4] = tested on: Amaranthus retroflexus
Summary of the method: as §1

[5] = tested on: Setaria viridis
Summary of the method: as §1

[6] = tested on: Abutilon theophrasti
Summary of the method: as §1

CCOC(=O)C1(C(F)(F)F)ON=C(c2cc(-c3ncc(C(F)(F)F)cc3Cl)c(F)cc2Cl)O1 (stereo not drawn) [Compound 62]
10: activity level (fresh weight growth control rate), Echinochloa crus-galli [1] | activity level (fresh weight growth control rate), Veronica polita [2] | activity level (fresh weight growth control rate), Digitaria sanguinalis [3] | activity level (fresh weight growth control rate), Amaranthus retroflexus [4] | activity level (fresh weight growth control rate), Setaria viridis [5] | activity level (fresh weight growth control rate), Abutilon theophrasti [6]

CCOC(=O)C1(C2CC2)ON=C(c2cc(-c3ncc(C(F)(F)F)cc3Cl)c(F)cc2Cl)O1 (stereo not drawn) [Compound 79]
10: activity level (fresh weight growth control rate), Echinochloa crus-galli [1] | activity level (fresh weight growth control rate), Veronica polita [2] | activity level (fresh weight growth control rate), Digitaria sanguinalis [3] | activity level (fresh weight growth control rate), Amaranthus retroflexus [4] | activity level (fresh weight growth control rate), Setaria viridis [5] | activity level (fresh weight growth control rate), Abutilon theophrasti [6]

CCSC(=O)C1(C)ON=C(c2cc(-c3ncc(C(F)(F)F)cc3Cl)c(F)cc2Cl)O1 (stereo not drawn) [Compound 85]
10: activity level (fresh weight growth control rate), Echinochloa crus-galli [1] | activity level (fresh weight growth control rate), Veronica polita [2] | activity level (fresh weight growth control rate), Digitaria sanguinalis [3] | activity level (fresh weight growth control rate), Amaranthus retroflexus [4] | activity level (fresh weight growth control rate), Setaria viridis [5] | activity level (fresh weight growth control rate), Abutilon theophrasti [6]

CCCOC(=O)C1(C)ON=C(c2cc(-c3ncc(C(F)(F)F)cc3Cl)c(F)cc2Cl)O1 (stereo not drawn) [Compound 86]
10: activity level (fresh weight growth control rate), Echinochloa crus-galli [1] | activity level (fresh weight growth control rate), Veronica polita [2] | activity level (fresh weight growth control rate), Digitaria sanguinalis [3] | activity level (fresh weight growth control rate), Amaranthus retroflexus [4] | activity level (fresh weight growth control rate), Setaria viridis [5] | activity level (fresh weight growth control rate), Abutilon theophrasti [6]

CCCOC(=O)C1(C)ON=C(c2cc(-c3ncc(Cl)cc3Cl)c(F)cc2Cl)O1 (stereo not drawn) [Compound 87]
10: activity level (fresh weight growth control rate), Echinochloa crus-galli [1] | activity level (fresh weight growth control rate), Veronica polita [2] | activity level (fresh weight growth control rate), Digitaria sanguinalis [3] | activity level (fresh weight growth control rate), Amaranthus retroflexus [4] | activity level (fresh weight growth control rate), Setaria viridis [5] | activity level (fresh weight growth control rate), Abutilon theophrasti [6]

CC(C)OC(=O)C1(C)ON=C(c2cc(-c3ncc(C(F)(F)F)cc3Cl)c(F)cc2Cl)O1 (stereo not drawn) [Compound 88]
10: activity level (fresh weight growth control rate), Echinochloa crus-galli [1] | activity level (fresh weight growth control rate), Veronica polita [2] | activity level (fresh weight growth control rate), Digitaria sanguinalis [3] | activity level (fresh weight growth control rate), Amaranthus retroflexus [4] | activity level (fresh weight growth control rate), Setaria viridis [5] | activity level (fresh weight growth control rate), Abutilon theophrasti [6]

CCCCOC(=O)C1(C)ON=C(c2cc(-c3ncc(C(F)(F)F)cc3Cl)c(F)cc2Cl)O1 (stereo not drawn) [Compound 89]
10: activity level (fresh weight growth control rate), Echinochloa crus-galli [1] | activity level (fresh weight growth control rate), Veronica polita [2] | activity level (fresh weight growth control rate), Digitaria sanguinalis [3] | activity level (fresh weight growth control rate), Amaranthus retroflexus [4] | activity level (fresh weight growth control rate), Setaria viridis [5] | activity level (fresh weight growth control rate), Abutilon theophrasti [6]

C=CCOC(=O)C1(C)ON=C(c2cc(-c3ncc(C(F)(F)F)cc3Cl)c(F)cc2Cl)O1 (stereo not drawn) [Compound 93]
10: activity level (fresh weight growth control rate), Echinochloa crus-galli [1] | activity level (fresh weight growth control rate), Veronica polita [2] | activity level (fresh weight growth control rate), Digitaria sanguinalis [3] | activity level (fresh weight growth control rate), Amaranthus retroflexus [4] | activity level (fresh weight growth control rate), Setaria viridis [5] | activity level (fresh weight growth control rate), Abutilon theophrasti [6]

CC(C)=CCOC(=O)C1(C)ON=C(c2cc(-c3ncc(C(F)(F)F)cc3Cl)c(F)cc2Cl)O1 (stereo not drawn) [Compound 96]
10: activity level (fresh weight growth control rate), Echinochloa crus-galli [1] | activity level (fresh weight growth control rate), Veronica polita [2] | activity level (fresh weight growth control rate), Digitaria sanguinalis [3] | activity level (fresh weight growth control rate), Amaranthus retroflexus [4] | activity level (fresh weight growth control rate), Setaria viridis [5] | activity level (fresh weight growth control rate), Abutilon theophrasti [6]

C#CCOC(=O)C1(C)ON=C(c2cc(-c3ncc(C(F)(F)F)cc3Cl)c(F)cc2Cl)O1 (stereo not drawn) [Compound 97]
10: activity level (fresh weight growth control rate), Echinochloa crus-galli [1] | activity level (fresh weight growth control rate), Veronica polita [2] | activity level (fresh weight growth control rate), Digitaria sanguinalis [3] | activity level (fresh weight growth control rate), Amaranthus retroflexus [4] | activity level (fresh weight growth control rate), Setaria viridis [5] | activity level (fresh weight growth control rate), Abutilon theophrasti [6]

CC1(C(=O)OCCF)ON=C(c2cc(-c3ncc(C(F)(F)F)cc3Cl)c(F)cc2Cl)O1 (stereo not drawn) [Compound 99]
10: activity level (fresh weight growth control rate), Echinochloa crus-galli [1] | activity level (fresh weight growth control rate), Veronica polita [2] | activity level (fresh weight growth control rate), Digitaria sanguinalis [3] | activity level (fresh weight growth control rate), Amaranthus retroflexus [4] | activity level (fresh weight growth control rate), Setaria viridis [5] | activity level (fresh weight growth control rate), Abutilon theophrasti [6]

CC1(C(=O)OCC(F)F)ON=C(c2cc(-c3ncc(C(F)(F)F)cc3Cl)c(F)cc2Cl)O1 (stereo not drawn) [Compound 101]
10: activity level (fresh weight growth control rate), Echinochloa crus-galli [1] | activity level (fresh weight growth control rate), Veronica polita [2] | activity level (fresh weight growth control rate), Digitaria sanguinalis [3] | activity level (fresh weight growth control rate), Amaranthus retroflexus [4] | activity level (fresh weight growth control rate), Setaria viridis [5] | activity level (fresh weight growth control rate), Abutilon theophrasti [6]

CC1(C(=O)OCCCF)ON=C(c2cc(-c3ncc(C(F)(F)F)cc3Cl)c(F)cc2Cl)O1 (stereo not drawn) [Compound 103]
10: activity level (fresh weight growth control rate), Echinochloa crus-galli [1] | activity level (fresh weight growth control rate), Veronica polita [2] | activity level (fresh weight growth control rate), Digitaria sanguinalis [3] | activity level (fresh weight growth control rate), Amaranthus retroflexus [4] | activity level (fresh weight growth control rate), Setaria viridis [5] | activity level (fresh weight growth control rate), Abutilon theophrasti [6]
